Results: article PMC11396746, “Stability Evaluation and Pharmacokinetic Profiling of Vepdegestrant in Rodents Using Liquid Chromatography–Tandem Mass Spectrometry” (Molecules, 2024)
Where two headings read alike, the source gives them in different places.

Key:
[1] = Metabolic stability in dog liver microsomes; type: in vitro ADME
Description: (§1) The metabolic stability of vepdegestrant was evaluated using liver microsomes obtained from mice, rats, dogs, and humans. Vepdegestrant was dissolved in DMSO to prepare a stock solution with a concentration of 0.1 mM. Microsomes (25 µL) were spiked into PBS (440 µL) and pre-incubated for 5 min. After pre-incubation, vepdegestrant stock solution (5 µL) was added, followed by an NADPH regenerating system (27 µL) to initiate the reaction. The composition of the reaction mixture was as follows: Vepdegestrant (final concentration 1 µM), mouse, rat, dog, human liver microsomes (protein concentration: 1 mg/mL), NADPH regenerating system (final concentrations: 1.3 mM NADP^+, 3.3 mM glucose-6-phosphate, 0.4 U/mL glucose-6-phosphate dehydrogenase, and 3.3 mM magnesium chloride), and PBS (pH 7.4). At 5, 15, 30, and 60 min after starting the reaction, aliquots (50 µL) were taken and added to ice-cold ACN with an IS (200 µL) to terminate the reaction. For the zero-time samples, aliquots were taken before adding NADPH. Subsequently, the mixture was vigorously mixed for 10 min and centrifuged at 17,054 g under 25 °C for 10 min. For analysis, 5 µL of the supernatant was injected into the HPLC-MS/MS system. In addition, the stability of vepdegestrant in rat liver microsomes was assessed in the absence of NADPH or NADPH and microsomes (PBS only). […]

[2] = Pharmacokinetic study in male ICR mice; type: in vivo; settings: mouse
Description: Twelve healthy male ICR mice (6 weeks old, 27.5–30.5 g) and 10 healthy male Sprague–Dawley (SD) rats (7 weeks old, 195.5–212.0 g) were acquired from Orient Bio Inc. (Seongnam, Republic of Korea) and used for PK studies. The animals were kept in rooms in a temperature range of 20–25 °C, humidity of 40–60%, and a 12-h light/dark cycle. Before the experiment, mice were fasted for 4 h, whereas rats were fasted for 14 h, with only water provided during the fasting period. After 4 h of drug administration, animals were provided with free access to food and water. All animal experiments were approved by the Institutional Animal Care and Use Committee of the Chungnam National University (202310A-CNU-178; Daejeon, Republic of Korea).
For the PK studies in mice, a vepdegestrant dosing solution was prepared using a combination of DMSO, PEG400, and saline (5:25:70, v/v/v). The dosing solution was administered intravenously (IV, 2 mg/kg) through the tail vein or orally (PO, 5 mg/kg) through a gavage needle. The dose volume for both routes was 10 mL/kg. Blood samples (50 μL) were collected via the retro-orbital plexus at 0.05 (IV only), 0.25, 0.5, 1, 2, 4, 8, and 24 h post vepdegestrant administration using heparin-coated microcapillaries. Blood samples were immediately centrifuged at 12,032 g under 25 °C for 5 min, and plasma aliquots (20 μL) were stored at −20 °C until HPLC-MS/MS analysis.
The collected plasma samples from mice or rats (20 µL) were added with IS (20 µL) and ACN (160 µL). Subsequently, the mixture was vigorously mixed for 10 min and centrifuged at 17,054× g under 25 °C for 10 min. An aliquot of the supernatant (100 μL) was taken, and a volume of 5 μL was injected for HPLC-MS/MS analysis. PK parameters were calculated using Phoenix® 8.3 software (Certara L.P., Princeton, NJ, USA), as described previously.

[3] = Metabolic stability in mouse liver microsomes; type: in vitro ADME; settings: 60 min, 1 μM, with NADPH
Description: as §1

[4] = Adsorption investigation after pH stability test (microtube emptied, ACN added, vepdegestrant recovered); type: physicochemical
Description: The half-lives of vepdegestrant at pH values of 2, 4, 6, 7.4, 8, and 10 were 7.35, 0.77, 0.40, 0.50, 0.38, and 0.60 h, respectively. Sun et al. reported that the thalidomide ligand, a cereblon-targeting moiety of PROTAC, was rapidly degraded in phosphate-buffered saline (PBS; pH 7.4). The binder in vepdegestrant contained lenalidomide, a CRBN ligand with a chemical structure similar to that of thalidomide. In addition, Chen et al. reported that the glutarimide ring of lenalidomide is cleaved and degraded through non-enzymatic hydrolysis in aqueous solutions and hepatocytes at physiological pH [24]. However, this instability might be attributed to the adsorption of vepdegestrant onto the surfaces of experimental containers such as microtubes. A high proportion of organic solvent can prevent vepdegestrant from binding to the sample vial surface, and the possibility of adsorption exists because a buffer solution was used in this study. To investigate adsorption, after the pH stability test was completed, the incubation mixture was completely emptied, and ACN was added and thoroughly mixed. LC-MS/MS analysis includes MRM transitions for the expected hydrolysis product i.e., m/z 742.3 → 356.3, to detect the presence of degradation products. […] In contrast, hydrolysis may play a significant role at pH 10. Based on these findings, future studies should consider the selection of container materials and the use of organic solvents to minimize vepdegestrant adsorption.

[5] = Stability of vepdegestrant in mouse plasma under storage conditions (method validation); type: in vitro ADME
Description: The results were within ±15% RE under all storage conditions, including at room temperature for 6 h, after three freeze–thaw cycles, at −20 °C for 4 weeks, and in an autosampler for 24 h after sample preparation.
Stability was tested for vepdegestrant in biological samples at LQC and HQC under specific conditions: Short-term stability at room temperature for 6 h, three freeze–thaw cycles, long-term stability at −20 °C for 4 weeks, and pretreated samples in an autosampler for 24 h. The stability test was performed via five replicates analysis, with the acceptance criteria being an RE within ±15% at LQC and HQC levels.

[6] = Metabolic stability in human liver microsomes; type: in vitro ADME
Description: as §1

- remaining percentage of unconverted vepdegestrant ([1]; 60 min, 1 μM, with NADPH): 97.1%
- half-life at 1 µM ([1]; beagle, liver microsomes, pH 7.4): 9.85 h
- Vd ([2]; male, ICR, plasma, intravenous, 2 mg/kg, read-out: volume of distribution): > 1 L/kg
- Cmax ([2]; male, ICR, plasma, IV 2 mg/kg): 2180 ± 442 ng/mL
- MRT ([2]; male, ICR, plasma, IV 2 mg/kg): 4.61 ± 1.43 h
- Tmax ([2]; male, ICR, plasma, IV 2 mg/kg): 0.05 h
- clearance ([2]; male, ICR, plasma, IV 2 mg/kg): 5.22 mL/min/kg
- half-life ([2]; male, ICR, plasma, IV 2 mg/kg): 3.79 ± 1.15 h
- Vd ([2]; male, ICR, plasma, IV 2 mg/kg, read-out: Vss): 1.43 ± 0.472 L/kg
- Cmax ([2]; male, ICR, plasma, PO 5 mg/kg): 393 ± 133 ng/mL
- MRT ([2]; male, ICR, plasma, PO 5 mg/kg): 5.58 ± 1.34 h
- Tmax ([2]; male, ICR, plasma, PO 5 mg/kg): 1 h
- half-life ([2]; male, ICR, plasma, PO 5 mg/kg): 3.64 ± 1.4 h
- bioavailability ([2]; male, ICR, plasma, PO 5 mg/kg vs IV 2 mg/kg, read-out: BA (oral bioavailability)): 17.9 ± 4.35%
- AUCinf ([2]; IV 2 mg/kg): 6510 ± 1060 ng·h/mL
- AUClast ([2]; IV 2 mg/kg): 6400 ± 1080 ng·h/mL
- AUCinf ([2]; PO 5 mg/kg): 2910 ± 707 ng·h/mL
- AUClast ([2]; PO 5 mg/kg): 2870 ± 704 ng·h/mL
- clearance as % of liver blood flow ([2]; liver blood flow 5.4 L/h/kg): 5.8%
- remaining percentage of unconverted vepdegestrant [3]: 106%
- recovered vepdegestrant percentage (adsorbed to microtube, recovered with ACN) ([4]; pH 2, after pH stability test): 21.8%
- recovered vepdegestrant percentage (adsorbed to microtube, recovered with ACN) ([4]; pH 4, after pH stability test): 108.9%
- recovered vepdegestrant percentage (adsorbed to microtube, recovered with ACN) ([4]; pH 6, after pH stability test): 105.1%
- recovered vepdegestrant percentage (adsorbed to microtube, recovered with ACN) ([4]; pH 7.4, after pH stability test): 72.6%
- recovered vepdegestrant percentage (adsorbed to microtube, recovered with ACN) ([4]; pH 8, after pH stability test): 63.9%
- recovered vepdegestrant percentage (adsorbed to microtube, recovered with ACN) ([4]; pH 10, after pH stability test): 27.7%
- Stability in Mouse Plasma ([5]; 1 month at −20 °C, nominal 3 ng/mL): 103.1 ± 5.4%
- Stability in Mouse Plasma ([5]; 1 month at −20 °C, nominal 900 ng/mL): 107.7 ± 4.0%
- Stability in Mouse Plasma ([5]; 6 h at room temperature (25 °C), nominal 3 ng/mL): 97.70 ± 4.12%
- Stability in Mouse Plasma ([5]; 6 h at room temperature (25 °C), nominal 900 ng/mL): 110.7 ± 2.8%
- Stability in Mouse Plasma ([5]; Freeze–thaw three-cycle (−20 °C → RT), nominal 3 ng/mL): 99.78 ± 1.60%
- Stability in Mouse Plasma ([5]; Freeze–thaw three-cycle (−20 °C → RT), nominal 900 ng/mL): 103.3 ± 4.1%
- Stability in Mouse Plasma ([5]; Processed sample in 10 °C autosampler for 24 h, nominal 3 ng/mL): 104.0 ± 7.2%
- Stability in Mouse Plasma ([5]; Processed sample in 10 °C autosampler for 24 h, nominal 900 ng/mL): 98.49 ± 8.79%
- remaining percentage of unconverted vepdegestrant ([6]; 60 min, 1 μM, with NADPH): 98.3%
- half-life at 1 µM ([6]; liver microsomes, pH 7.4): 13.4 h
SMILES: O=C1CC[C@H](N2Cc3cc(N4CCN(CC5CCN(c6ccc([C@@H]7c8ccc(O)cc8CC[C@@H]7c7ccccc7)cc6)CC5)CC4)ccc3C2=O)C(=O)N1 [vepdegestrant, Vepdegestrant]
